Results taken from US20220142897A1, “Formulation and Use Thereof in the Treatment of Keratosis Pilaris” (priority 2020, published 2022).

Columns and labels:
sebaceous glands [1] = settings: cited from earlier work
sebaceous glands [2] = assay: Stimulation of sebaceous glands / sebum production by topical DHEA; type: in vivo, human
Text: The main component of the current invention is DHEA, a steroid hormone. Without being bound by theory, it is hypothesized that DHEA in the current invention serves to simulate the production of sebaceous glands. […] In contrast, the upper limits of DHEA in the current invention can be as high as 100%.
Daily applications of DHEA can increase the output of sebaceous glands by up to 60% within 3 months. This makes DHEA a particularly viable and effective treatment for increasing sebum output in those with KP. Patients with KP typically have widespread sebaceous gland atrophy in the affected areas of the skin, causing downstream symptoms of skin dryness, inflammation, and could potentially be the root cause of the keratin papules that develop. DHEA also is suspected to help modulate and regulate keratinocyte proliferation. It is suspected that by regulating keratinocytes in the follicular channel, the rate at which keratin blockages forms is reduced.

Row | SMILES | increase of the output of sebaceous glands (sebaceous glands [1]; daily applications, within 3 months) | safety of continuous topical application (sebaceous glands [1]; low concentrations to avoid systemic circulation) | sebum production as observed by softness and oiliness (sebaceous glands [2]; 2% DHEA) | sebum production as observed by softness and oiliness (sebaceous glands [2]; DHEA reduced to approximately 0.1%) | stimulation of the sebaceous glands (sebaceous glands [2]; concentrations of DHEA at less than 0.1%, clinical studies) | potency to stimulate sebaceous gland to produce sebocytes (sebaceous glands [1]; relative to DHEA)
1 | C[C@]12CC[C@H](O)CC1=CC[C@@H]1[C@@H]2CC[C@]2(C)C(=O)CC[C@@H]12 [DHEA, dehydroepiandrosterone] | up to 60% | safe | increase in sebum production | Such phenotypes are observed | ineffective | –
2 | C[C@]12CCC(=O)C[C@@H]1CC[C@@H]1[C@@H]2CC[C@]2(C)[C@@H](O)CC[C@@H]12 [DHT, dihydrotestosterone] | – | – | – | – | – | more potent than DHEA
